Test results taken from publication PMC3187794, “Insights into the Complex Formed by Matrix Metalloproteinase-2 and Alloxan Inhibitors: Molecular Dynamics Simulations and Free Energy Calculations” (PLoS ONE, 2011).

Assays:
Format in all cases: biochemical
MMP-8 = MMP-8 (Homo sapiens, UniProt P22894); assay: MMP inhibition fluorimetric assay (pro-fluorescing peptide substrate), MMP-8
Method: (§1) Inhibitory activities were determined by a fluorimetric assay, where a pro-fluorescing peptide was used as substrate of MMP, and the fluorogenic activity of its cleavage product was measured after co-incubation with test compounds.

MMP-9 = MMP-9 (Homo sapiens, UniProt P14780); assay: MMP inhibition fluorimetric assay (pro-fluorescing peptide substrate), MMP-9
Method: as §1

MMP-2 = biological target: T1, MMP-2 (Homo sapiens, UniProt P08253); assay: MMP inhibition fluorimetric assay (pro-fluorescing peptide substrate), MMP-2
T1 sequence (P08253 110-660): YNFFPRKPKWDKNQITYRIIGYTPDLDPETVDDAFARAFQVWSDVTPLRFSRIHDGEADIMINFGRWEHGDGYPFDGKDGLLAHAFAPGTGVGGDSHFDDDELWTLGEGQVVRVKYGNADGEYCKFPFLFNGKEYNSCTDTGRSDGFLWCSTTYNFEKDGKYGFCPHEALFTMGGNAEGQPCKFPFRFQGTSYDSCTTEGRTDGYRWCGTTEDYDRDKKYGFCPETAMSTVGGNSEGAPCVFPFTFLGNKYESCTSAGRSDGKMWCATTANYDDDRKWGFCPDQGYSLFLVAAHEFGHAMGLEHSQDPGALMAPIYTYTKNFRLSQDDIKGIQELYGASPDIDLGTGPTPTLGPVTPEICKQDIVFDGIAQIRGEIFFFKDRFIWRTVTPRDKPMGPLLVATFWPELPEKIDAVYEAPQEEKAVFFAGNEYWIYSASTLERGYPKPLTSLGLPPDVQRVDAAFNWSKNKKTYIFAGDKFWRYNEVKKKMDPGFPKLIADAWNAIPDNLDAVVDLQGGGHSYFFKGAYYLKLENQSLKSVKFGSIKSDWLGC
Method: as §1

MMP-8, sequence (P22894 101-467, species assumed): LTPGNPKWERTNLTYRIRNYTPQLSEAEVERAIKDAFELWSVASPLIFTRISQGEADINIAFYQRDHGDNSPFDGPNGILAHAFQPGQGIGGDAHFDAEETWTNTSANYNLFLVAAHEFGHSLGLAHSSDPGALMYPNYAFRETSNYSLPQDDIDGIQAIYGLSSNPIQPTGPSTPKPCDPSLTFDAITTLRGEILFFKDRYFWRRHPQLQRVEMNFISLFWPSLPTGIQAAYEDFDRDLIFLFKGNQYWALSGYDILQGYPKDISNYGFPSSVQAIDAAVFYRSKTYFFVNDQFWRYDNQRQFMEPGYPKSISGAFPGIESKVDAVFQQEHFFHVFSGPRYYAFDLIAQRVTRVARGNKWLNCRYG
MMP-9, sequence (P14780 94-707, species assumed): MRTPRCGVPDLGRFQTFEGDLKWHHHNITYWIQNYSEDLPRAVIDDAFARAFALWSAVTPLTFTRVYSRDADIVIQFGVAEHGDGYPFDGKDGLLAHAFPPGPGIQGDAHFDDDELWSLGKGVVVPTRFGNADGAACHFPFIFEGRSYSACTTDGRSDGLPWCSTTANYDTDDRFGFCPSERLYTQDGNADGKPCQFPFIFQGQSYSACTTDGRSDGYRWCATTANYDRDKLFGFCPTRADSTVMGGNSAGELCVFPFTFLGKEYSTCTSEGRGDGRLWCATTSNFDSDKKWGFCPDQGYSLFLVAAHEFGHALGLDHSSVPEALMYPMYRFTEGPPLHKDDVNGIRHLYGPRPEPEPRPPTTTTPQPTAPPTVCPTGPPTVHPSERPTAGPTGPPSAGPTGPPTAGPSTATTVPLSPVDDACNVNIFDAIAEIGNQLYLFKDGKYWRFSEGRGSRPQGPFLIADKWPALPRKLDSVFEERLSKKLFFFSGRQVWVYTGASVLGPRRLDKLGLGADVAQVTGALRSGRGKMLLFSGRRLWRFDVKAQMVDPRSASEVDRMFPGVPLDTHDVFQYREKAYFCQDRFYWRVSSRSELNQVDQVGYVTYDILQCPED

Row | SMILES | IC50 (MMP-8) [µM] | IC50 (MMP-9) [µM] | IC50 (MMP-2) [µM] | selectivity towards MMP-2, as compared to MMP-9 (MMP-2; MMP-2 vs MMP-9) | inhibition at 100 µM (MMP-8) [%] | inhibition at 100 µM (MMP-9) [%] | inhibition at 100 µM (MMP-2) [%]
1 | NC(=O)c1ccc(-c2ccc(C(=O)CC3(O)C(=O)NC(=O)NC3=O)cc2)cc1 [BAM] | 0.589 | 1.82 | 0.0871 | > 20 |  |  | 
2 | O=C1NC(=O)C(O)(CC(=O)c2ccc(-c3ccccc3)cc2)C(=O)N1 [BAR] | 0.263 | 0.513 | 0.182 |  |  |  | 
3 | O=C1NC(=O)C(O)(CC(=O)c2ccc(-c3cccc(Cl)c3)cc2)C(=O)N1 [BCL] | 4.47 | 20 | 60.3 |  |  |  | 
4 | O=c1[nH]c(=O)c2cc(-c3ccccc3)nnc2[nH]1 [compound 1] |  |  |  |  | 0 | 5 | 0
5 | O=c1[nH]c(=O)c2cc(-c3ccc(C(F)(F)F)cc3)nnc2[nH]1 [compound 2] |  |  |  |  | 14 | 27 | 12
6 | O=C1NC(=O)C(O)(CC(=O)c2ccccc2)C(=O)N1 [compound 3] | 42.7 | 44.7 |  |  |  |  | 0
7 | O=C1NC(=O)C(O)(CC(=O)c2ccc(C(F)(F)F)cc2)C(=O)N1 [compound 4] | 8.13 |  | 38.9 |  |  | 51 | 
8 | COc1ccc(C(=O)CC2(O)C(=O)NC(=O)NC2=O)cc1 [compound 5] | 6.76 | 12.9 | 21.4 |  |  |  | 
9 | O=C1NC(=O)C(O)(CC(=O)c2ccc([N+](=O)[O-])cc2)C(=O)N1 [compound 6] | 631 |  |  |  |  | 8 | 0
